GI50 and TGI data for 7 compounds are collected here from PubChem BioAssay (NCI).

Some test systems named below: NCI/ADR-RES ovarian; RXF 393 renal; MDA-MB-435; A498 renal; NCI-H226 lung; ACHN renal; MOLT-4 leukemia; HCT-15 colon; SN12C renal; SNB-19 CNS.
Holding throughout (experiment): DTP human tumour cell line panel, 48 h

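These data come from cells grown in 96-well plates and exposed to compound for 48 hours at five concentrations. Here, GI50 denotes the concentration required for 50% inhibition of growth. TGI marks complete inhibition of growth.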

In general, GI50 refers to the concentration giving 50% growth inhibition. What is called TGI is the concentration giving total growth inhibition. On to `C1CC[N-]CC1.CC(=N\O)/C(C)=N/O.CC(=N\O)/C(C)=N/O.OC1[CH-]CCCC1.[Co+2]`, for which the GI50 is over 100 µM with NCI/ADR-RES ovarian; 19.2 µM in the experiment on RXF 393 renal; 33.9 µM with MDA-MB-435; over 100 µM in the experiment on A498 renal; over 100 µM with NCI-H226 lung; 76.3 µM in the experiment on ACHN renal. In addition, the GI50 in the experiment with MOLT-4 leukemia was 26.4 µM; in the experiment with HCT-15 colon, 65.5 µM; in the experiment on SN12C renal it was 53.7 µM; with SNB-19 CNS it was over 100 µM. The total growth inhibition concentration (TGI) in the experiment on NCI/ADR-RES ovarian is over 100 µM; in the experiment with RXF 393 renal, 62.4 µM; with MDA-MB-435, over 100 µM; with A498 renal, over 100 µM; in the experiment with NCI-H226 lung it was over 100 µM; in the experiment on ACHN renal it was over 100 µM. In addition, the concentration for total growth inhibition (TGI) was 99.1 µM in the experiment with MOLT-4 leukemia, over 100 µM in the experiment with HCT-15 colon, over 100 µM in the experiment on SN12C renal and over 100 µM in the experiment with SNB-19 CNS.

For `OCc1ccc(-c2cscc2-c2ccc(CO)o2)o1`, the GI50 was 32.9 µM in the experiment with NCI/ADR-RES ovarian; over 20.8 µM in the experiment on RXF 393 renal; over 100 µM with MDA-MB-435; 0.0156 µM in the experiment with A498 renal; 0.112 µM with NCI-H226 lung; over 100 µM in the experiment on ACHN renal. In addition, the GI50 in the experiment on MOLT-4 leukemia was over 100 µM; in the experiment with HCT-15 colon, over 80.1 µM; with SN12C renal it was over 100 µM; in the experiment with SNB-19 CNS, over 100 µM. For the same compound, the concentration for total growth inhibition (TGI) with NCI/ADR-RES ovarian is over 100 µM; with RXF 393 renal, over 89.5 µM; with MDA-MB-435, over 100 µM; with A498 renal it was 0.0381 µM; with NCI-H226 lung it was 0.485 µM; in the experiment with ACHN renal, over 100 µM. Also, the TGI with MOLT-4 leukemia, in the experiment with HCT-15 colon, in the experiment on SN12C renal and with SNB-19 CNS was over 100 µM each time.

As to `COc1ccc(-c2nc(-c3nc4ccc(F)cc4[nH]3)c3ccccn23)cc1`, the GI50 is 6.5 µM in the experiment with NCI/ADR-RES ovarian; 6.05 µM in the experiment with RXF 393 renal; 8.05 µM with MDA-MB-435; 3.83 µM with A498 renal; 2.72 µM in the experiment on NCI-H226 lung; 4.28 µM with ACHN renal. The GI50 with MOLT-4 leukemia was 3.83 µM; with HCT-15 colon, 33.6 µM; in the experiment on SN12C renal, 13.3 µM; with SNB-19 CNS, 11.2 µM. The TGI was 36.5 µM in the experiment on NCI/ADR-RES ovarian; 45.3 µM with RXF 393 renal; over 100 µM in the experiment on MDA-MB-435; 31.8 µM in the experiment with A498 renal; 9.06 µM with NCI-H226 lung; 25.9 µM in the experiment with ACHN renal. In addition, the total growth inhibition concentration (TGI) with MOLT-4 leukemia was over 100 µM; with HCT-15 colon, over 100 µM; in the experiment with SN12C renal, over 100 µM; with SNB-19 CNS, 58.6 µM.

Regarding `COC(=O)COc1ccc(/C=C2/N=C(c3ccccc3)N(c3c(C)n(C)n(-c4ccccc4)c3=O)C2=O)cc1`, the GI50 is 54.8 µM in the experiment with NCI/ADR-RES ovarian; 19.4 µM in the experiment with RXF 393 renal; 19.7 µM in the experiment on MDA-MB-435; 26.1 µM with A498 renal; 25.3 µM in the experiment on NCI-H226 lung; 17.6 µM in the experiment with ACHN renal. Besides, the GI50 was 23 µM in the experiment on MOLT-4 leukemia, 66.5 µM in the experiment with HCT-15 colon, 22.5 µM in the experiment with SN12C renal and 36.3 µM in the experiment with SNB-19 CNS. The concentration for total growth inhibition (TGI) with NCI/ADR-RES ovarian is over 100 µM; with RXF 393 renal, 36.5 µM; in the experiment on MDA-MB-435 it was 47 µM; with A498 renal it was 44.1 µM; with NCI-H226 lung it was 63.5 µM; in the experiment on ACHN renal it was 31.4 µM. Also, the total growth inhibition concentration (TGI) was 59.8 µM in the experiment on MOLT-4 leukemia, over 100 µM with HCT-15 colon, 49 µM in the experiment with SN12C renal and over 100 µM in the experiment with SNB-19 CNS.

`COc1ccc(C(O)c2cc3c(N)c(C(=O)Nc4cccc(Cl)c4)sc3nc2C)cc1` (stereo not given): the GI50 in the experiment on NCI/ADR-RES ovarian is 1.11 µM; in the experiment with RXF 393 renal, 0.31 µM; with MDA-MB-435, 0.0371 µM; in the experiment on A498 renal, 0.659 µM; in the experiment with NCI-H226 lung, 1.63 µM; in the experiment with ACHN renal, 2.3 µM. In addition, the GI50 in the experiment with MOLT-4 leukemia was 1.54 µM; in the experiment with HCT-15 colon it was 1.18 µM; with SN12C renal, 2.02 µM; with SNB-19 CNS, 1.47 µM. Moreover, the concentration for total growth inhibition (TGI) in the experiment on NCI/ADR-RES ovarian is over 36.1 µM; in the experiment on RXF 393 renal, 1.76 µM; with MDA-MB-435, 0.262 µM; in the experiment on A498 renal it was 2.38 µM; in the experiment on NCI-H226 lung, over 43 µM; in the experiment with ACHN renal it was over 42.4 µM. The concentration for total growth inhibition (TGI) in the experiment on MOLT-4 leukemia was over 43.3 µM; in the experiment with HCT-15 colon, over 49.2 µM; in the experiment with SN12C renal, over 72.7 µM; with SNB-19 CNS, over 46.8 µM.

Take `Cc1nn2c(/C=C3/C(=O)Nc4cc(Cl)ccc43)c(-c3ccccc3)nc2s1`: the GI50 in the experiment on NCI/ADR-RES ovarian was 3.54 µM; with RXF 393 renal, 2.27 µM; in the experiment on MDA-MB-435, 3.72 µM; with A498 renal, 15.5 µM; in the experiment with NCI-H226 lung, 4.56 µM; with ACHN renal, 1.54 µM. Further, the GI50 with MOLT-4 leukemia was 4.11 µM; in the experiment on HCT-15 colon, 4.79 µM; with SN12C renal, 2.84 µM; with SNB-19 CNS, 10.7 µM. The TGI is over 100 µM in the experiment with NCI/ADR-RES ovarian; 5.97 µM with RXF 393 renal; over 100 µM with MDA-MB-435; 72 µM with A498 renal; 63.7 µM in the experiment with NCI-H226 lung; 3.08 µM in the experiment with ACHN renal. Further, the TGI is over 100 µM in the experiment on MOLT-4 leukemia, over 100 µM in the experiment with HCT-15 colon, 11.1 µM in the experiment with SN12C renal and over 100 µM in the experiment on SNB-19 CNS.

`Cc1cc(O)c(C2=NN(c3ccc(S(N)(=O)=O)cc3)C(c3ccc(Cl)cc3)C2)c(C)c1Cl` (stereo not given): the GI50 in the experiment with NCI/ADR-RES ovarian was 4.63 µM; in the experiment with RXF 393 renal, 5.83 µM; with MDA-MB-435, 3.57 µM; in the experiment on A498 renal, 6.97 µM; in the experiment on NCI-H226 lung it was 10.5 µM; in the experiment on ACHN renal, 3.7 µM. In addition, the GI50 in the experiment on MOLT-4 leukemia is 1.94 µM; in the experiment with HCT-15 colon, 5.48 µM; with SN12C renal it was 5.71 µM; in the experiment on SNB-19 CNS, 12.4 µM. Further, the TGI in the experiment on NCI/ADR-RES ovarian was 17 µM; with RXF 393 renal, 21.1 µM; in the experiment with MDA-MB-435 it was 14.8 µM; in the experiment with A498 renal it was 19.3 µM; in the experiment with NCI-H226 lung, 24.1 µM; with ACHN renal, 14.4 µM. The TGI was 7.25 µM with MOLT-4 leukemia, 20.8 µM in the experiment with HCT-15 colon, 19.2 µM in the experiment on SN12C renal and 24.9 µM with SNB-19 CNS.
